# Read-outs that look alike come from different tables or passages of the source.
# What was measured:
# [1] = target: GST-tagged K-Ras mutant / His-tagged hSOS1 (Homo sapiens, UniProt P01116); assay: HTRF assay, K-Ras mutant / SOS1 interaction; format: binding; settings: read-out: IC50 against mutant Kras
# Summary of the method: (§1)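 GST-tagged K-Ras (mutant or wildtype) with anti-GST-Eu donor was mixed with His-hSOS1 and anti-6His-XL665 acceptor in HEPES pH 7.4 buffer with NaCl, DTT, BSA and Igepal. After ≥10 min, HTRF was read (ex 337 nm, em 620/665 nm); 665/620 ratios gave IC50 from duplicate dilution series.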
# wildtype Kras / hSOS1 = target: T1, wildtype Kras / hSOS1 (Homo sapiens, UniProt P01116); assay: HTRF assay, wildtype Kras / SOS1 interaction; format: binding; settings: read-out: IC50 against wildtype Kras
# T1 construct: made in house; host or cells: E. coli BL21 (DE3)
# T1 sequence (P01116 1-188 isoform P01116-2): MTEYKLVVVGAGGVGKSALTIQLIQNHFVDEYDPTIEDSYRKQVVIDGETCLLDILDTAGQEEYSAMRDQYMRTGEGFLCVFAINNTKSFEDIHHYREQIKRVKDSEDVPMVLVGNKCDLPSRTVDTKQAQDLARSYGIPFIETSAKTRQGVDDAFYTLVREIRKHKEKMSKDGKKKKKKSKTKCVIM
# Summary of the method: as §1
# GST-tagged K-Ras mutant / His-tagged hSOS1, sequence (P01116 whole entry G12D, form open): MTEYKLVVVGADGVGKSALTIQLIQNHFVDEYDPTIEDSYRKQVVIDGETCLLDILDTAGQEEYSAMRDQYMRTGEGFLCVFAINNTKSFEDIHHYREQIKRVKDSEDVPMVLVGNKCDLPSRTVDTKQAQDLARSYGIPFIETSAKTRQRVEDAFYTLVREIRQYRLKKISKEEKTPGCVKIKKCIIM
IC50 ([1]; compound nos. 301-306) [nM],IC50 (wildtype Kras / hSOS1; compound nos. 301-306) [nM],IC50 ([1]; compound nos. 401-703) [nM],IC50 (wildtype Kras / hSOS1; compound nos. 401-703) [nM],SMILES
> 1500,< 1500,–,–,"Nc1nc2c(-c3c(Cl)cc4c(N5[C@@H]6CC[C@H]5CC(F)(F)C6)nc(OC[C@@]56CCCN5C[C@H](F)C6)nc4c3F)ccc(F)c2s1 [Compound 303, 4-(6-chloro-4-((1R,5S)-3,3-difluoro-8-azabicyclo[3.2.1]-octan-8-yl)-8-fluoro-2-(((2R,7aS)-2-fluorotetra-hydro-1H-pyrrolizin-7a(5H)-yl)methoxy)quinazolin-7-yl)-7-fluorobenzo[d]thiazol-2-amine]"
< 1500,< 1500,–,–,"Nc1nc2c(-c3c(Cl)cc4c(N5[C@@H]6CC[C@H]5CC(F)C6)nc(OC[C@@]56CCCN5C[C@H](F)C6)nc4c3F)ccc(F)c2s1 (stereo partly drawn) [Compound 304, 4-(6-chloro-8-fluoro-4-((1R,3S,5S)-3-fluoro-8-azabicyclo[3.2.1]octan-8-yl)-2-(((2R,7aS)-2-fluoro-tetrahydro-1H-pyrrolizin-7a(5H)-yl)methoxy)quin-azolin-7-yl)-7-fluorobenzo-[d]thiazol-2-amine]"
< 1500,< 1500,–,–,"Nc1nc2c(-c3c(Cl)cc4c(N5[C@@H]6CCC[C@H]5C[C@H](O)C6)nc(OC[C@@]56CCCN5C[C@H](F)C6)nc4c3F)ccc(F)c2s1 [Compound 305, (1R,3R,5S)-9-(7-(2-amino-7-fluorobenzo[d]thiazol-4-yl)-6-chloro-8-fluoro-2-(((2R,7aS)-2-fluorotetra-hydro-1H-pyrrolizin-7a(5H)-yl)methoxy)quinazolin-4-yl)-9-azabicyclo[3.3.1]-nonan-3-ol]"
< 1500,< 1500,–,–,"CN1CCC[C@H]1COc1nc(N2[C@@H]3CC[C@H]2CNC3)c2cc(Cl)c(-c3cccc4sc(N)nc34)c(F)c2n1 [Compound 306, 4-(4-((1R,5S)-3,8-diaza-bicyclo[3.2.1]octan-8-yl)-6-chloro-8-fluoro-2-(((S)-1-methylpyrrolidin-2-yl)meth-oxy)quinazolin-7-yl)benzo-[d]thiazol-2-amine]"
–,–,< 500,< 500,"N#CC1C2CCC1CN(c1nc(OC[C@@]34CCCN3C[C@H](F)C4)nc3c(F)c(-c4ccc(F)c5sc(N)nc45)c(Cl)cc13)C2 (stereo partly drawn) [Compound 403, (1R,5S,8S)-3-(7-(2-amino-7-fluorobenzo[d]thiazol-4-yl)-6-chloro-8-fluoro-2-(((2R,7aS)-2-fluorotetra-hydro-1H-pyrrolizin-7a(5H)-yl)methoxy)quinazolin-4-yl)-3-azabicyclo[3.2.1]-octane-8-carbonitrile]"
–,–,> 500,< 500,"Nc1nc2c(-c3cc4c(=O)n(CCN5CCCC5)nc(N5C[C@H]6CC[C@@H](C5)N6)c4cc3Cl)ccc(F)c2s1 [Compound 404, 7-(2-amino-7-fluorobenzo[d]thiazol-4-yl)-4-((1R,5S)-3,8-diazabicyclo[3.2.1]octan-3-yl)-6-chloro-2-(2-(pyrrolidin-1-yl)ethyl)phthalazin-1(2H)-one]"
–,–,> 500,< 500,"N#Cc1c(N)sc2c(F)ccc(-c3c(Cl)cc4c(N5CCNCC(F)(F)C5)nc(OC[C@@]56CCCN5C[C@H](F)C6)nc4c3F)c12 [Compound 405, 2-amino-4-(6-chloro-4-(6,6-difluoro-1,4-diazepan-1-yl)-8-fluoro-2-(((2R,7aS)-2-fluorotetrahydro-1H-pyr-rolizin-7a(5H)-yl)methoxy)-quinazolin-7-yl)-7-fluoro-benzo[b]thiophene-3-carbonitrile]"
–,–,< 500,< 500,"NCC1C2CCC1CN(c1nc(OCC34CCCN3CCC4)nc3c(F)c(-c4ccc(F)c5sc(N)nc45)c(Cl)cc13)C2 [Compound 406, 4-(4-((1R,5S,8r)-8-(amino-methyl)-3-azabicyclo[3.2.1]-octan-3-yl)-6-chloro-8-fluoro-2-((tetrahydro-1H-pyrrolizin-7a(5H)-yl)meth-oxy)quinazolin-7-yl)-7-fluorobenzo[d]thiazol-2-amine]"
–,–,< 500,< 500,"Nc1nc2c(-c3c(Cl)cc4c(N5CCCC(O)CC5)nc(OC[C@@]56CCCN5C[C@H](F)C6)nc4c3F)ccc(F)c2s1 (stereo partly drawn) [Compound 407, 1-(7-(2-amino-7-fluoro-benzo[d]thiazol-4-yl)-6-chloro-8-fluoro-2-(((2R,7aS)-2-fluorotetrahydro-1H-pyr-rolizin-7a(5H)-yl)methoxy)-quinazolin-4-yl)azepan-4-ol]"
–,–,> 500,< 500,"Nc1nc2c(-c3ccc4c(N5C[C@H]6CCNCC[C@H]6C5)nc(OC[C@@]56CCCN5C[C@H](F)C6)nc4c3F)ccc(F)c2s1 [Compound 408, 7-fluoro-4-(8-fluoro-2-(((2R,7aS)-2-fluorotetra-hydro-1H-pyrrolizin-7a(5H)-yl)methoxy)-4-((3aR,8aS)-octahydropyrrolo[3,4-d]-azepin-2(1H)-yl)quinazolin-7-yl)benzo[d]thiazol-2-amine]"
–,–,> 500,< 500,"Oc1cc(-c2c(Cl)cc3c(N4CC5CCC(C4)N5)nc(OCC45CCCC4CCC5)nc3c2F)c2ccccc2c1 (centres unmarked) [Compound 410, 4-(4-(3,8-diazabicyclo-[3.2.1]octan-3-yl)-6-chloro-8-fluoro-2-((hexahydro-pentalen-3a(1H)-yl)meth-oxy)quinazolin-7-yl)naph-thalen-2-ol]"
–,–,> 500,< 500,"Nc1nc2c(-c3c(Cl)cc4c(N5CC6CCC(C5)N6)nc(OCC5(CN6CCC(F)(F)C6)CC5)nc4c3F)ccc(F)c2s1 [Compound 411, 4-(4-(3,8-diazabicyclo-[3.2.1]octan-3-yl)-6-chloro-2-((1-((3,3-difluoropyrrol-idin-1-yl)methyl)cycloprop-yl)methoxy)-8-fluoroquin-azolin-7-yl)-7-fluorobenzo-[d]thiazol-2-amine]"
–,–,> 500,< 500,"Nc1nc2c(-c3ccc4c(N5CC6CCC(C5)N6)nc(OCC56CCCN5CCC6)nc4n3)ccc(F)c2s1 [Compound 412, 4-(4-(3,8-diazabicyclo-[3.2.1]octan-3-yl)-2-((tetra-hydro-1H-pyrrolizin-7a(5H)-yl)methoxy)pyrido[2,3-d]-pyrimidin-7-yl)-7-fluoro-benzo[d]thiazol-2-amine]"
–,–,< 500,< 500,"Nc1nc2c(-c3c(Cl)cc4c(N5C[C@H]6CC[C@@H](C5)[C@@H]6N)nc(OCC56CCCN5CCC6)nc4c3F)ccc(F)c2s1 [Compound 413, 4-(4-((1R,5S,8s)-8-amino-3-azabicyclo[3.2.1]octan-3-yl)-6-chloro-8-fluoro-2-((tetra-hydro-1H-pyrrolizin-7a(5H)-yl)methoxy)quinazolin-7-yl)-7-fluorobenzo[d]thiazol-2-amine]"
–,–,> 500,< 500,"CN1CCC[C@H]1COc1nc(N2CCCC(C(=O)O)CC2)c2cc(Cl)c(-c3cccc4sc(N)nc34)c(F)c2n1 (stereo partly drawn) [Compound 414, 1-(7-(2-aminobenzo[d]-thiazol-4-yl)-6-chloro-8-fluoro-2-(((S)-1-methyl-pyrrolidin-2-yl)methoxy)-quinazolin-4-yl)azepane-4-carboxylic acid]"
–,–,> 500,< 500,"CC1CCCN(c2nc(OC[C@@H]3CCCN3C)nc3c(F)c(-c4cccc5sc(N)nc45)c(Cl)cc23)CC1 (stereo partly drawn) [Compound 416, 4-(6-chloro-8-fluoro-4-(4-methylazepan-1-yl)-2-(((S)-1-methylpyrrolidin-2-yl)-methoxy)quinazolin-7-yl)-benzo[d]thiazol-2-amine]"
